Assay results as given in PubChem BioAssay AID248 (DTP/NCI, 2004).
Several values for one entry are separate records, joined by “and”; a condition that tells them apart may be missing. Identical values can stand only once. Toxic doses and inconclusive results are not listed. Cut-off read from the data, not from the text of the source: active = T/C of 150% or more; inactive = T/C below 125%.

Tested on: L1210 leukemia ip in BDF1 mice, survival T/C
Assay: NCI In Vivo Anticancer Drug Screen. Data for tumor model L1210 Leukemia (intraperitoneal) in B6D2F1 (BDF1) mice
Conditions: endpoint: mean survival time, higher = longer survival
How it was run: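 Value reflects the ratio of survival in compound-treated mice to survival in vehicle-treated controls, with both groups carrying the same transplanted tumor.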

[1] = dose: 100.0 mg/kg/injection, schedule: Q01DX009 (ip), vehicle: saline with Tween-80
[2] = dose: 100.0 mg/kg/injection, schedule: Q04DX002 (ip), vehicle: saline with Tween-80
[3] = dose: 200.0 mg/kg/injection, schedule: Q04DX002 (ip), vehicle: saline with Tween-80
[4] = dose: 400.0 mg/kg/injection, schedule: Q04DX002 (ip), vehicle: saline with Tween-80
[5] = dose: 100.0 mg/kg/injection, schedule: Q01DX001 (ip), vehicle: saline
[6] = dose: 200.0 mg/kg/injection, schedule: Q01DX001 (ip), vehicle: saline
[7] = dose: 400.0 mg/kg/injection, schedule: Q01DX001 (ip), vehicle: saline
[8] = dose: 100.0 mg/kg/injection, schedule: Q01DX009 (ip), vehicle: saline
[9] = dose: 200.0 mg/kg/injection, schedule: Q01DX009 (ip), vehicle: saline
[10] = dose: 100.0 mg/kg/injection, schedule: Q01DX009 (ip), vehicle: Klucel (hydroxypropylcellulose) (HPC)
[11] = dose: 25.0 mg/kg/injection, schedule: Q01DX009 (ip), vehicle: Klucel (hydroxypropylcellulose) (HPC)
[12] = dose: 50.0 mg/kg/injection, schedule: Q01DX009 (ip), vehicle: Klucel (hydroxypropylcellulose) (HPC)
[13] = dose: 50.0 mg/kg/injection, schedule: Q01DX009 (ip), vehicle: saline

Measured: T/C

CCOc1cc([N+](=O)[O-])c(OCC)cc1C#N
inactive: dose: 5.0 mg/kg/injection, schedule: Q01DX001 (ip), vehicle: other 106 % of control | dose: 10.0 mg/kg/injection, schedule: Q01DX001 (ip), vehicle: other 90 % of control | dose: 20.0 mg/kg/injection, schedule: Q01DX001 (ip), vehicle: other 93 % of control

Oc1c(Br)cc(Br)cc1C=NCC1CCC(CN=Cc2cc(Br)cc(Br)c2O)CC1 (stereo not given)
inactive: [1] 92 % of control | [2] 110 % of control and 90 % of control | [3] 96 % of control and 90 % of control | dose: 400.0 mg/kg/injection, schedule: Q01DX009 (ip), vehicle: saline with Tween-80 92 % of control and 94 % of control | [4] 106 % of control and 90 % of control

COC(=O)C(OC(C)=O)C1OC(n2cnc3c(=S)nc[nH]c32)C(OC(C)=O)C1OC(C)=O (stereo not given)
inactive: [5] 96 % of control | [6] 102 % of control | [7] 97 % of control

O=C(c1ccccc1)N1CC1
inactive: dose: 25.0 mg/kg/injection, schedule: Q01DX009 (ip), vehicle: water 95 % of control | dose: 50.0 mg/kg/injection, schedule: Q01DX009 (ip), vehicle: water 93 % of control | dose: 100.0 mg/kg/injection, schedule: Q01DX009 (ip), vehicle: water 86 % of control | dose: 200.0 mg/kg/injection, schedule: Q01DX009 (ip), vehicle: water 88 % of control | dose: 400.0 mg/kg/injection, schedule: Q01DX009 (ip), vehicle: water 90 % of control

O=C(Nc1cc(NC(=O)Oc2ccccc2)cc([N+](=O)[O-])c1)Oc1ccccc1
inactive: dose: 100.0 mg/kg/injection, schedule: Q04DX003 (ip), vehicle: saline with Tween-80 96 % of control | dose: 200.0 mg/kg/injection, schedule: Q04DX003 (ip), vehicle: saline with Tween-80 103 % of control | dose: 400.0 mg/kg/injection, schedule: Q04DX003 (ip), vehicle: saline with Tween-80 88 % of control

O=C1CCCC23C4CCCC4C12C1CCCC13 (stereo not given)
inactive: dose: 100.0 mg/kg/injection, schedule: Q04DX002 (ip), vehicle: gum acacia 100 % of control | dose: 200.0 mg/kg/injection, schedule: Q04DX002 (ip), vehicle: gum acacia 97 % of control | dose: 400.0 mg/kg/injection, schedule: Q04DX002 (ip), vehicle: gum acacia 100 % of control

O=C(COc1ccc(Cl)c(Cl)c1)NCc1ccc[n+](CC(=O)Nc2ccc(S(=O)(=O)F)cc2)c1
inactive: [8] 100 % of control | [9] 94 % of control

O=[N+]([O-])c1ccccc1C=Nc1ccccc1
inactive: dose: 100.0 mg/kg/injection, schedule: Q01DX009 (ip), vehicle: acetone 96 % of control | dose: 100.0 mg/kg/injection, schedule: Q04DX003 (ip), vehicle: acetone 106 % of control | dose: 200.0 mg/kg/injection, schedule: Q01DX009 (ip), vehicle: acetone 98 % of control | dose: 200.0 mg/kg/injection, schedule: Q04DX003 (ip), vehicle: acetone 97 % of control | dose: 400.0 mg/kg/injection, schedule: Q01DX009 (ip), vehicle: acetone 102 % of control | dose: 400.0 mg/kg/injection, schedule: Q04DX003 (ip), vehicle: acetone 101 % of control

CC12CCC3C(CC=C4CC(SC(=N)N)CCC43C)C1CCC2=O (stereo not given)
inactive: dose: 100.0 mg/kg/injection, schedule: Q01DX001 (ip), vehicle: Klucel (hydroxypropylcellulose) (HPC) 95 % of control | dose: 100.0 mg/kg/injection, schedule: Q04DX003 (ip), vehicle: Klucel (hydroxypropylcellulose) (HPC) 97 % of control | dose: 200.0 mg/kg/injection, schedule: Q01DX001 (ip), vehicle: Klucel (hydroxypropylcellulose) (HPC) 95 % of control | dose: 200.0 mg/kg/injection, schedule: Q04DX003 (ip), vehicle: Klucel (hydroxypropylcellulose) (HPC) 95 % of control | dose: 400.0 mg/kg/injection, schedule: Q01DX001 (ip), vehicle: Klucel (hydroxypropylcellulose) (HPC) 101 % of control | dose: 400.0 mg/kg/injection, schedule: Q04DX003 (ip), vehicle: Klucel (hydroxypropylcellulose) (HPC) 97 % of control

Cc1ccc2c3csc4ccccc4c-3nc2c1
inactive: dose: 6.25 mg/kg/injection, schedule: Q01DX009 (ip), vehicle: saline 101 % of control | dose: 12.5 mg/kg/injection, schedule: Q01DX009 (ip), vehicle: saline 95 % of control | dose: 12.5 mg/kg/injection, schedule: Q04DX003 (ip), vehicle: saline 93 % of control | dose: 25.0 mg/kg/injection, schedule: Q04DX003 (ip), vehicle: saline 92 % of control

Cc1cc(O)ccc1C#N
inactive: dose: 100.0 mg/kg/injection, schedule: Q04DX002 (ip), vehicle: saline 102 % of control | dose: 200.0 mg/kg/injection, schedule: Q04DX002 (ip), vehicle: saline 102 % of control | dose: 400.0 mg/kg/injection, schedule: Q04DX002 (ip), vehicle: saline 104 % of control

N#CC1(Nc2ccc3c4c(cccc24)CC3)CCCCC1
inactive: [2] 95 % of control | [3] 109 % of control | [4] 95 % of control

O=C(Oc1c(Cl)cc(Cl)cc1C=Nc1ccc(Cl)cc1)c1ccccc1
inactive: [10] 103 % of control | dose: 200.0 mg/kg/injection, schedule: Q01DX009 (ip), vehicle: Klucel (hydroxypropylcellulose) (HPC) 104 % of control | dose: 400.0 mg/kg/injection, schedule: Q01DX009 (ip), vehicle: Klucel (hydroxypropylcellulose) (HPC) 96 % of control

CSC(N(C)c1ccccc1)=[N+](C)c1ccccc1
inactive: [5] 105 % of control

Cc1ccc(S(=O)(=O)NC(=O)N(Cc2ccccc2)C(C)(C)C)cc1
inactive: [11] 107 % of control | [12] 100 % of control

CC1=C2C(=C[C@@](C)(CO)[C@@H]2O)C(=O)[C@](C)(O)C12CC2
inactive: dose: 75.0 micrograms/kg/injection, schedule: Q01DX Z (ip), vehicle: saline 103 % of control | dose: 150.0 micrograms/kg/injection, schedule: Q01DX Z (ip), vehicle: saline 117 % of control | dose: 300.0 micrograms/kg/injection, schedule: Q01DX Z (ip), vehicle: saline 117 % of control | dose: 600.0 micrograms/kg/injection, schedule: Q01DX Z (ip), vehicle: saline 100 % of control

O=C1C(=O)C(C(=O)c2ccccc2)C(=O)C1C(=O)c1ccccc1 (stereo not given)
inactive: dose: 55.0 mg/kg/injection, schedule: Q01DX Z (ip), vehicle: saline 109 % of control | dose: 83.0 mg/kg/injection, schedule: Q01DX Z (ip), vehicle: saline 100 % of control | dose: 125.0 mg/kg/injection, schedule: Q01DX Z (ip), vehicle: saline 93 % of control

FC(F)(F)c1nc(=S)c2cn[nH]c2[nH]1
inactive: dose: 44.0 mg/kg/injection, schedule: Q01DX Z (ip), vehicle: methylcellulose (MC) 100 % of control | dose: 66.0 mg/kg/injection, schedule: Q01DX Z (ip), vehicle: methylcellulose (MC) 91 % of control | dose: 100.0 mg/kg/injection, schedule: Q01DX Z (ip), vehicle: methylcellulose (MC) 95 % of control

C=C/C(C)=C/[C@H](C)C(=O)C[C@H](O)CC1CC(=O)NC(=O)C1
inactive: dose: 12.5 mg/kg/injection, schedule: Q01DX009 (ip), vehicle: saline with Tween-80 109 % of control | [11] 113 % of control | dose: 25.0 mg/kg/injection, schedule: Q01DX009 (ip), vehicle: saline with Tween-80 120 % of control | [12] 122 % of control | dose: 50.0 mg/kg/injection, schedule: Q01DX009 (ip), vehicle: saline with Tween-80 119 % of control | [10] 90 % of control | [1] 123 % of control

Cn1cnc2cc(Cl)ccc21
inactive: [13] 101 % of control | [8] 104 % of control | [9] 97 % of control

OC1CC2C=CC1C2 (stereo not given)
inactive: dose: 100.0 mg/kg/injection, schedule: Q01DX001 (ip), vehicle: carboxymethylcellulose (CMC) 93 % of control | [5] 107 % of control | dose: 200.0 mg/kg/injection, schedule: Q01DX001 (ip), vehicle: carboxymethylcellulose (CMC) 95 % of control | [6] 88 % of control | dose: 400.0 mg/kg/injection, schedule: Q01DX001 (ip), vehicle: carboxymethylcellulose (CMC) 101 % of control | [7] 109 % of control

Cc1cc(O)c2c(c1O)C(=O)c1ccccc1C2=O
inactive: [13] 95 % of control | [8] 95 % of control | dose: 100.0 mg/kg/injection, schedule: Q04DX003 (ip), vehicle: saline 98 % of control | [9] 95 % of control | dose: 200.0 mg/kg/injection, schedule: Q04DX003 (ip), vehicle: saline 96 % of control | dose: 400.0 mg/kg/injection, schedule: Q01DX009 (ip), vehicle: saline 104 % of control | dose: 400.0 mg/kg/injection, schedule: Q04DX003 (ip), vehicle: saline 93 % of control
